Results as given in BigSolDB 2.1.

COc1ccc2c(c1)c(CC(=O)O)c(C)n2C(=O)c1ccc(Cl)cc1
Settings | solubility (mole fraction)
in PEG-400, 293.15 K | 0.0751
in PEG-400, 298.15 K | 0.0831
in PEG-400, 303.15 K | 0.0923
in PEG-400, 308.15 K | 0.102
in PEG-400, 313.15 K | 0.114
in PEG-400, 318.15 K | 0.127

in water
Settings | solubility (mole fraction)
293.15 K | 4.73e-08
298.15 K | 5e-08
303.15 K | 5.31e-08
308.15 K | 5.58e-08
313.15 K | 5.85e-08
318.15 K | 6.16e-08
